The text below walks through data of patent US12023397B2, “Scalp protection composition” (PATECH FINE CHEMICALS CO., LTD., priority 2021, dated 2024).

Molecules are shown by their SMILES.

One data set has as its system skin of a test subject. The data set is described as follows: Moisture retention (skin moisture content after application). It is filed as in vivo. Particulars: 20° C.±3° C., relative humidity 30%±5%. The method, then:
0.1 g of the scalp protection composition of Example 1 was applied to the skin of a test subject. At the 1st, 2nd, and 3rd hours after start of application of the scalp protection composition of Example 1, the skin moisture content (%) of the test subject was measured by using a skin moisture tester (Manufacturer: Cortex Technology; Model no.: DermaLab® Combo) under a temperature of 20° C.±3° C. and a relative humidity of 30%±5%.
The test samples of Comparative Examples 1 and 3 were subjected to the same measurement as described above.
The higher the skin moisture content, the better the moisture retention is.

A short description of data set [1]: Hydrolysis resistance (variation in acid value in alkaline aqueous solution, pH 13). To be noted: 10 g sample + 20 g NaOH aqueous solution pH 13, 40±1° C. It is filed as physicochemical. The method, then: 10 g of the carboxylate compound of formula (I-1) prepared in Synthesis Example 1 was mixed with 20 g of an alkaline aqueous solution with a pH value of 13 (which contained sodium hydroxide and water), and then subjected to a reaction at 40±1° C. for 4 hours. Next, the variation in acid value (mg KOH/g) was measured at the 0.75th, 2nd, 3rd, and 4th hours after starting the reaction.
The carboxylate compound of formula (I-2) prepared in Synthesis Example 2, the carboxylate compound of formula (I-3) prepared in Synthesis Example 3, and the test samples of Comparative Examples 1 to 2 were subjected to the same reaction and measurement as described above.
The smaller the variation in acid value, the better the hydrolysis resistance to strong bases is.

The nature of data set [2]: Spreadability (spreading rate on quantitative filter paper). To be noted: 50 μL on quantitative filter paper NO. 5C, spreading area after 5 minutes divided by time. It is filed as physicochemical. On the procedure:
50 μL of the carboxylate compound of formula (I-1) prepared in Synthesis Example 1 was dropped on the center of a quantitative filter paper (NO. 5C), and after 5 minutes, the spreading area of the carboxylate compound of formula (I-1) on the quantitative filter paper was measured. The spreading rate (mm^2/min) was calculated by dividing the spreading area by the spreading time (i.e., 5 minutes).
The carboxylate compound of formula (I-2) prepared in Synthesis Example 2, the carboxylate compound of formula (I-3) prepared in Synthesis Example 3, and the test samples of Comparative Examples 1 to 3 were subjected to the same measurement as described above.
The higher the spreading rate, the better the spreadability is.

`CCCCCCCCCCC(CCCCCCCC)COC(=O)CCCCCCCCCCCCCCC(C)C` (stereo not shown) [Comparative Example 1, 2-octyldodecyl isostearate]: the figures for the Skin moisture content with skin of a test subject (1st hour after application of 0.1 g to skin), in the data set with skin of a test subject (2nd hour after application of 0.1 g to skin) and in the data set on skin of a test subject (3rd hour after application of 0.1 g to skin) were 28.0%, 22.7% and 19.3%, respectively. The “Variation in acid value” is 0.21 mg KOH/g in data set [1] (0.75th hour), 0.26 mg KOH/g in data set [1] (2nd hour), 0.28 mg KOH/g in data set [1] (3rd hour) and 0.32 mg KOH/g in data set [1] (4th hour). Also, the Spreading rate in data set [2] worked out at 150 mm^2/min.

`CCCCCCCCCCC(CCCCCCCC)COC(=O)C(CC)CCCC` (stereo not shown) [Synthesis Example 1, 2-octyldodecyl 2-ethylhexanoate]: the “Variation in acid value” in data set [1] (0.75th hour) was under 0.1 mg KOH/g; in data set [1] (2nd hour), under 0.1 mg KOH/g; in data set [1] (3rd hour), 0.12 mg KOH/g; in data set [1] (4th hour), 0.16 mg KOH/g. Besides, the Spreading rate in data set [2] is on record as 202 mm^2/min.
